# Laboratory results as given in patent publication US9045442B2, “Antibacterial compounds and methods of using same” (University of Notre Dame du Lac, priority 2007, dated 2015).
# Assays:
# E. faecalis 29212 = test: minimum inhibitory concentration (MIC) against E. faecalis 29212; assay type: cell-based; parameters: minimum inhibitory concentration, E. faecalis 29212: unit not given here
# Text: (§1) In embodiments, the antibacterials of this invention may have useful activity against a variety of organisms. The in vitro activity of compounds of this invention may be assessed by standard testing procedures such as the determination of minimum inhibitory concentration (MIC) by agar dilution.
# (§2) Compound A was broken down into smaller structural components and each fraction tested to understand the impact of certain components on the antibacterial properties of the compounds. Based on the understanding of compound A, the compounds (compounds 1 and 2) shown below, were tested further. […] A minimum inhibitory concentration is the lowest concentration of an antimicrobial that will inhibit the visible growth of a microorganism after overnight incubation.
# (§3) In accordance with embodiments of the present invention, a variety of compounds have been prepared and tested, as indicated, in part, by the description above. The tables below provide minimum inhibitory concentration data for the identified compounds tested against various bacterial strains.
# (§4) Table 1 lists the active compounds and the activity of those compounds for a limited quantity of bacteria. Blank spaces indicate low or no activity.
# E. faecal 201 = test: minimum inhibitory concentration (MIC) against E. faecal 201; assay type: cell-based, E. faecalis
# Text: as §1, §2, §3, §4
# E. faecalis 99 = test: minimum inhibitory concentration (MIC) against E. faecalis 99; assay type: cell-based
# Text: as §1, §2, §3, §4
# strains of Entercoccus = test: activity (minimum inhibitory concentration testing) against strains of Entercoccus; assay type: cell-based; settings: result in words; for activity as measured by minimum inhibitory concentration testing against several strains of Entercoccus: FIG. 1
# Method: (§5) In an embodiment, an initial antibacterial compound was provided and tested. Such compound is identified below as compound A. Compound A (below) is an inhibitor of gram positive bacteria.
# as §2
# gram positive bacteria = test: inhibition of gram positive bacteria; assay type: cell-based; settings: result in words
# Text: as §5
# S. aureus ATCC 29213 = test: minimum inhibitory concentration (MIC) against S. aureus ATCC 29213; assay type: cell-based, Staphylococcus aureus
# Text: as §1, §2, §3, §4
# E. faecium 119-39A = test: minimum inhibitory concentration (MIC) against E. faecium 119-39A; assay type: cell-based
# Text: as §1, §2, §3
# S. aureus NRS100 (COL) = test: minimum inhibitory concentration (MIC) against S. aureus NRS100 (COL); assay type: cell-based, Staphylococcus aureus
# Text: as §1, §2, §3
# [1] = tested on: several strains of Staphylococcus aureus; test: activity (minimum inhibitory concentration testing) against several strains of Staphylococcus aureus; assay type: cell-based; settings: FIG. 1, result in words
# Method: as §2
# S. aureus VAN1 = test: minimum inhibitory concentration (MIC) against S. aureus VAN1; assay type: cell-based, Staphylococcus aureus
# Text: as §1, §2, §3
# S. aureus VAN2 = test: minimum inhibitory concentration (MIC) against S. aureus VAN2; assay type: cell-based, Staphylococcus aureus
# Text: as §1, §2, §3
# E. faecium 106 = test: minimum inhibitory concentration (MIC) against E. faecium 106; assay type: cell-based
# Text: as §1, §2, §3
SMILES,"minimum inhibitory concentration, E. faecalis 29212 (E. faecalis 29212)","minimum inhibitory concentration, E. faecal 201 (E. faecal 201)",other results
"Oc1ccc(Oc2ccc(-c3noc(-c4ccc(F)cc4)n3)cc2)cc1 [Compound 36, 4-(4-(5-(4-fluorophenyl)-1,2,4-oxadiazol-3-yl)phenoxy)phenol]",64,32,–
"Oc1ccc(-c2nc(-c3ccc(Oc4ccncc4)cc3)no2)cc1 [Compound 52, 4-(3-(4-(pyridin-4-yloxy)phenyl)-1,2,4-oxadiazol-5-yl)phenol]",–,32,–
"c1ccc(COc2ccc(-c3nc(-c4ccc(Oc5ccccn5)cc4)no3)cc2)cc1 [Compound 43, 2-(4-(5-(4-(benzyloxy)phenyl)-1,2,4-oxadiazol-3-yl)phenoxy)pyridine]",–,64,–
"c1ccc(COc2ccc(-c3nc(-c4ccc(Oc5cnccn5)cc4)no3)cc2)cc1 [Compound 40, 2-(4-(5-(4-(benzyloxy)phenyl)-1,2,4-oxadiazol-3-yl)phenoxy)pyrazine]",–,64,–
O=[N+]([O-])c1ccc(-c2nc(-c3ccc(Oc4ccc(C(F)(F)F)cc4)cc3)no2)cc1 [Compound 15],8,128,–
"c1ccc(COc2ccc(-c3nc(-c4ccc(Oc5ccncc5)cc4)no3)cc2)cc1 [Compound 51, 4-(4-(5-(4-(benzyloxy)phenyl)-1,2,4-oxadiazol-3-yl)phenoxy)pyridine]",–,64,–
"O=P(O)(O)Oc1ccc(Oc2ccc(-c3noc(-c4ccc(F)cc4)n3)cc2)cc1 [Compound 37, 4-(4-(5-(4-fluorophenyl)-1,2,4-oxadiazol-3-yl)phenoxy)phenyl dihydrogen phosphate]",500,32,"minimum inhibitory concentration, E. faecalis 29212 BH (E. faecalis 29212): 128; minimum inhibitory concentration, E. faecal 99 BH (E. faecalis 99): 500; minimum inhibitory concentration, E. faecal 201 BH (E. faecal 201): 500"
"Oc1ccc(-c2nc(-c3ccc(Oc4ccccn4)cc3)no2)cc1 [Compound 44, 4-(3-(4-(pyridin-2-yloxy)phenyl)-1,2,4-oxadiazol-5-yl)phenol]",–,32,–
CC(=O)O/N=C(\N)c1ccc(Oc2ccc(C(F)(F)F)cc2)cc1 [Compound 7],32,128,"minimum inhibitory concentration, E. faecal 99 BH (E. faecalis 99): 512"
"Fc1ccc(-c2nc(-c3ccc(Oc4ccc(C(F)(F)F)cc4)cc3)no2)cc1 [Compound A, 5-(4-fluorophenyl)-3-(4-(4-(trifluoromethyl)phenoxy)phenyl)-1,2,4-oxadiazole]",125,128,activity against some strains of Entercoccus (strains of Entercoccus; some strains of Entercoccus): shows activity; inhibition of gram positive bacteria (gram positive bacteria): inhibitor
"c1ccc(COc2ccc(-c3nc(-c4ccc(Oc5cccnc5)cc4)no3)cc2)cc1 [Compound 47, 3-(4-(5-(4-(benzyloxy)phenyl)-1,2,4-oxadiazol-3-yl)phenoxy)pyridine]",–,32,–
"COc1ccc(-c2noc(-c3ccc(OCc4ccccc4)cc3)n2)cc1 [Compound 27, 5-(4-(benzyloxy)phenyl)-3-(4-methoxyphenyl)-1,2,4-oxadiazole]",–,256,–
"N/C(=N\OC(=O)c1ccc(F)cc1)c1ccc(Oc2ccccc2)cc1 [Compound 29, (Z)-4-(phenoxy)-O-(4-fluorobenzoyl)benzamidoxime]",64,128,–
"N/C(=N\OC(=O)c1ccc([N+](=O)[O-])cc1)c1ccc(Oc2ccc(C(F)(F)F)cc2)cc1 [Compound 14, (Z)-4-(4-(trifluoromethyl)phenoxy)-O-(4-nitrobenzoyl)benzamidoxime]",128,32,–
"Oc1ccc(-c2nc(-c3ccc(Oc4ccccc4)cc3)no2)cc1 [Compound 2, 4-(3-(4-phenoxyphenyl)-1,2,4-oxadiazol-5-yl)phenol]",4,4,"minimum inhibitory concentration, S. aureus ATCC 29213 (S. aureus ATCC 29213): 2; minimum inhibitory concentration, E. faecium 119-39A (E. faecium 119-39A): 4; minimum inhibitory concentration, S. aureus NRS100 (COL) (S. aureus NRS100 (COL)): 2; activity as measured by minimum inhibitory concentration testing against several strains of Staphylococcus aureus [1]: good activity; activity as measured by minimum inhibitory concentration testing against several strains of Entercoccus (strains of Entercoccus): good activity; minimum inhibitory concentration, E. faecalis 99 (E. faecalis 99): 4; minimum inhibitory concentration, S. aureus VAN1 (S. aureus VAN1): 2; minimum inhibitory concentration, S. aureus VAN2 (S. aureus VAN2): 2; minimum inhibitory concentration, E. faecium 106 (E. faecium 106): 4"
"COc1ccc(/C(N)=N/OC(=O)c2ccc(F)cc2)cc1 [Compound 25, 4-fluorobenzoyl-O-4-methoxybenzamidoxime]",256,256,–
"COc1ccc(-c2noc(-c3ccc(O)cc3)n2)cc1 [Compound 28, 4-(3-(4-methoxyphenyl)-1,2,4-oxadiazol-5-yl)phenol]",–,64,"minimum inhibitory concentration, S. aureus ATCC 29213 (S. aureus ATCC 29213): 32"
"Oc1ccc(-c2nc(-c3ccc(Oc4ccc(C(F)(F)F)cc4)cc3)no2)cc1 [Compound 1, 4-(3-(4-(4-(trifluoromethyl)phenoxy)phenyl)-1,2,4-oxadiazol-5-yl)phenol]",2,2,"minimum inhibitory concentration, S. aureus ATCC 29213 (S. aureus ATCC 29213): 2; minimum inhibitory concentration, E. faecium 119-39A (E. faecium 119-39A): 2; minimum inhibitory concentration, E. faecium 119-39A BH (E. faecium 119-39A; E. faecium 119-39A BH): 8; minimum inhibitory concentration, S. aureus NRS100 (COL) (S. aureus NRS100 (COL)): 2; activity as measured by minimum inhibitory concentration testing against several strains of Staphylococcus aureus [1]: good activity; activity as measured by minimum inhibitory concentration testing against several strains of Entercoccus (strains of Entercoccus): good activity; minimum inhibitory concentration, E. faecalis 29212 BH (E. faecalis 29212): 16; minimum inhibitory concentration, E. faecal 99 BH (E. faecalis 99): 8; minimum inhibitory concentration, E. faecalis 99 (E. faecalis 99): 2; minimum inhibitory concentration, S. aureus VAN1 (S. aureus VAN1): 2; minimum inhibitory concentration, S. aureus VAN2 (S. aureus VAN2): 2; minimum inhibitory concentration, E. faecium 106 (E. faecium 106): 2; minimum inhibitory concentration, E. faecium 106 BH (E. faecium 106; E. faecium 106 BH): 4; minimum inhibitory concentration, E. faecal 201 BH (E. faecal 201): 16"
"Fc1ccc(-c2nc(-c3ccccc3)no2)cc1 [Compound 19, 5-(4-fluorophenyl)-3-phenyl-1,2,4-oxadiazole]",64,128,–
"Oc1ccc(-c2nc(-c3ccc(Oc4cccnc4)cc3)no2)cc1 [Compound 48, 4-(3-(4-(pyridin-3-yloxy)phenyl)-1,2,4-oxadiazol-5-yl)phenol]",–,32,–
"COc1ccc(-c2noc(-c3ccc(F)cc3)n2)cc1 [Compound 26, 5-(4-fluorophenyl)-3-(4-methoxyphenyl)-1,2,4-oxadiazole]",64,128,–
